In US11760717B2, “Resin composition and fluidity improvement method” (Osaka Gas Chemicals Co., Ltd., priority 2020, dated 2023):

Experiments:
[1] = 5% mass reduction temperature (TG-DTA); format: physicochemical; conditions: nitrogen atmosphere, 50 to 400° C., heating rate 10° C./min
Method: (5% Mass Reduction Temperature)
The temperature, at which the mass of the sample is reduced by 5% by mass, was measured using a Thermogravimeter-Differential Thermal Analyzer (TG-DTA) (manufactured by PerkinElmer, Inc., “TGA-4000”) in a nitrogen atmosphere, under the condition of a measurement temperature range of 50 to 400° C. with a heating rate of 10° C./min.

[2] = Visual confirmation of extruded thread shaped sample (compatibility of resin and additive); format: physicochemical; conditions: thread shaped sample extruded from the resin composition, visually confirmed
Method: When a thread shaped sample obtained by extruding the resin composition was visually confirmed, the resin and the additive were compatible with each other without becoming cloudy in each of samples.
For each of Examples, the PA66 as a resin and AAD-FL as an additive were kneaded at a ratio shown in Table 3 to prepare a resin composition. Kneading was performed using a twin-screw extruder (manufactured by Parker Corporation, “HK25D”, L/D=41, screw diameter: 25 mm) under the conditions of a temperature of 270° C., a screw rotation speed of 150 rpm, and a discharge amount of 6 kg/hour. When a thread shaped sample obtained by extruding the resin composition was visually confirmed, the resin and the additive were compatible with each other without becoming cloudy in each of samples in Examples 4 to 6, as in Example 3.

Row | SMILES | 5% mass reduction temperature [1] [°C] | compatibility of resin and additive [2]
1 | NC(=O)CCC1(CCC(N)=O)c2ccccc2-c2ccccc21 [AAD-FL, 9,9-bis(2-carbamoylethyl)fluorene] | 320 | compatible with the resin
2 | CCN(CC)C(=O)CCC1(CCC(=O)N(CC)CC)c2ccccc2-c2ccccc21 [DEAA-FL, 9,9-bis[2-(N,N-diethylcarbamoyl)ethyl]fluorene] | 294 | –
3 | CN(C)C(=O)CCC1(CCC(=O)N(C)C)c2ccccc2-c2ccccc21 [DMAA-FL, 9,9-bis[2-(N,N-dimethylcarbamoyl)ethyl]fluorene] | 318 | –
4 | CC(C)NC(=O)CCC1(CCC(=O)NC(C)C)c2ccccc2-c2ccccc21 [NIPAM-FL, 9,9-bis[2-(N-isopropylcarbamoyl)ethyl]fluorene] | 257 | –
